# Measurements published in patent US20240216357A1 (SICHUAN HUIYU PHARMACEUTICAL CO., LTD., priority 2021, published 2024).
# Counter-ions that a name gives are not always drawn.
# Target: LSD1 (Homo sapiens (Human), UniProt O60341)
# Assay: LSD1 enzyme activity detection (HTRF)
# Assay type: biochemical
# Settings: HTRF, H3K4me1 substrate; read-out: Inhibition of enzymatic activity of LSD1 IC50
row,Molecule,IC50 [µM]
1,CS(=O)(=O)N1CCN(C(=O)c2cc(CN[C@@H]3C[C@H]3c3ccc(F)cc3)nc(-c3ccccc3)n2)CC1 [Example 1],0.186 ± 0.0696
2,"Cc1ccc(-c2c(-c3ccc(C#N)cc3)cc3c(N4CCC[C@@H](N)C4)nccn23)cc1 [Example 3, (R)-4-(1-(3-aminopiperidin-1-yl)-6-(p-tolyl)pyrrolo[1,2-a]pyrazine-7-yl)benzonitrile]",0.0008 ± 8e-05
3,"Cc1ccc(-c2c(-c3ccc(C#N)cc3)cc3c(N4CCC[C@@H](N)C4)nncn23)cc1 [Example 4, (R)-4-(1-(3-aminopiperidin-1-yl)-6-(p-tolyl)pyrrolo[1,2-d] [1,2,4]triazine-7-yl)benzonitrile]",0.0023 ± 0.00074
4,"COc1ccc(-c2c(-c3ccc(C#N)c(C#N)c3)nc(N3C4CCC3CC(N)C4)n3ccnc23)cc1F (stereo not shown) [Example 181, 4-(5-(3-amino-8-azabicyclo [3.2.1]octane-8-yl)-8-(3-fluoro-4-methoxyphenyl)imidazolo[1,2-c]pyrimidin-7-yl) phthalonitrile hydrochloride]",0.193
5,"COc1ccc(-c2c(-c3ccc(C#N)c(C)c3)nc(N3C4CCC3CC(N)C4)n3ccnc23)cc1F (stereo not shown) [Example 184, 4-(5-(3-amino-8-azabicyclo[3.2.1]octane-8-yl)-8-(3-fluoro-4-methoxyphenyl)imidazolo[1,2-c]pyrimidin-7-yl)-2-methylbenzonitrile hydrochloride]",0.111
6,"Cc1ccc(-c2c(-c3ccc(C#N)cc3)cc3c(N4CCCCC4)nccn23)cc1 [Example 191, 4-(1-(piperidin-1-yl)-6-(p-tolyl)pyrrolo[1,2-a]pyrazin-7-yl)benzonitrile]",0.104
7,"Cc1ccc(-c2c(-c3ccc(C#N)cc3)cc3c(N4CCN(C)CC4)nncn23)cc1 [Example 195, 4-(1-(4-methylpiperazin-1-yl)-6-(p-tolyl)pyrrolo[1,2-d][1,2,4]triazine-7-yl)benzonitrile]",0.208
8,"Cc1ccc(-c2c(-c3ccc(C#N)cc3)cc3c(N4CCC(N)CC4)ccnn23)cc1 [Example 198, hydrochloride]",0.174
9,"Cc1noc2cc(-c3sc(C(=O)N4C5CCC4CC(N)C5)cc3-c3ccc4cn[nH]c4c3)c(F)cc12 (stereo not shown) [Example 205, (3-amino-8-azabicyclo [3.2.1]octane-8-yl) (5-(5-fluoro-3-methylbenzo[d]isoxazol-6-yl)-4-(1H-indazol-6-yl)thiophen-2-yl)methanone hydrochloride]",0.902
10,"Cc1noc2cc(-c3sc(C(=O)N4C5CCC4CC(N)C5)cc3-c3cncnc3)c(F)cc12 (stereo not shown) [Example 206, (3-amino-8-azabicyclo [3.2.1]octan-8-yl)(5-(5-fluoro-3-methylbenzo[d]isoxazol-6-yl)-4-(pyrimidine-5-yl)thiophen-2-yl) methanone hydrochloride]",0.432
11,"Cc1noc2cc(-c3sc(C(=O)N4C5CCC4CC(N)C5)cc3-c3ccccc3)c(F)cc12 (stereo not shown) [Example 207, (3-amino-8-azabicyclo [3.2.1]octan-8-yl)(5-(5-fluoro-3-methylbenzo[d]isoxazol-6-yl)-4-phenyithio-phene-2-yl)methanone hydrochloride]",1.25
12,"Cc1noc2cc(-c3sc(C(=O)N4C5CCC4CC(N)C5)cc3-c3cccnc3)c(F)cc12 (stereo not shown) [Example 208, (3-amino-8-azabicyclo [3.2.1]octan-8-yl) (5-(5-fluoro-3-methylbenzo [d]isoxazol-6-yl)-4-(pyridin-3-yl)thiophen-2-yl) methanone hydrochloride]",0.641
13,"Cc1noc2cc(-c3sc(C(=O)N4C5CCC4CC(N)C5)cc3-c3ccccn3)c(F)cc12 (stereo not shown) [Example 210, (3-amino-8-azabicyclo [3.2.1]octan-8-yl)(5-(5-fluoro-3-methylbenzo[d]isoxazol-6-yl)-4-(pyridin-2-yl)thiophen-2-yl)methanone]",5.52
14,Cc1noc2cc(-c3sc(C(=O)N4C5CCC4CC(N)C5)cc3-c3ncccn3)c(F)cc12 (stereo not shown) [Example 211],0.206
15,"Cc1noc2cc(-c3sc(C(=O)N4C5CCC4CC(N)C5)cc3-c3ccc(S(N)(=O)=O)cc3)c(F)cc12 (stereo not shown) [Example 212, 4-(5-(3-amino-8-azabicyclo [3.2.1]octane-8-carbonyl)-2-(5-fluoro-3-methyl-benzo[d]isoxazol-6-yl)thiophen-3-yl)benzene-sulfonamide]",0.207
16,"Cc1noc2cc(-c3sc(C(=O)N4C5CCC4CC(N)C5)cc3-c3ccc(S(C)(=O)=O)cc3)c(F)cc12 (stereo not shown) [Example 213, (3-amino-8-azabicyclo [3.2.1]octan-8-yl) (5-(5-fluoro-3-methylbenzo [d]isoxazol-6-yl)-4-(4-(methyldimethylsulfoxide-16-sulfonyl)phenyl)thio-phen-2-yl)methanone]",0.0367
17,"CS(=O)(=O)N1CCN(c2cc(CN[C@@H]3C[C@H]3c3ccc(F)cc3)nc(-c3ccc(N4CCOCC4)cc3)n2)CC1 [Example 265, (1R,2S)-2-(4-fluorophenyl)-N-((6-(4-(methylsulfonyl)piperazin-1-yl)-2-(4-morpholinophenyl)pyrimidin-4-yl)methyl) cyclopropane-1-amine]",0.224

# Same assay, conditions: read-out: Inhibition of enzymatic activity of LSD1 IC50
row,Molecule,IC50 [µM]
1,"5′-(4-aminopiperidin-1l-yl)-3-fluoro-3′,3′-dihydroxy-4′-methyl-[1,1′:2′,1′-triphenyl]-4-carbonitrile [Example 266]",0.0007 ± 4e-06

# Tested on: NCI-H1417 cells
# Assay: In vitro cell proliferation detection (CellTiter-Glo, 7 days)
# Assay type: cell-based
# Settings: Homo sapiens, 168 h; NCI-H1417 cells, 7 days, CellTiter-Glo; read-out: NCI-H1417 proliferation inhibition IC50
row,Molecule,IC50 [nM]
1,"Cc1ccc(-c2c(-c3ccc(C#N)cc3)cc3c(N4CCC[C@@H](N)C4)nccn23)cc1 [Example 3, (R)-4-(1-(3-aminopiperidin-1-yl)-6-(p-tolyl)pyrrolo[1,2-a]pyrazine-7-yl)benzonitrile]",34.2
2,"Cc1ccc(-c2c(-c3ccc(C#N)cc3)cc3c(N4CCC[C@@H](N)C4)nncn23)cc1 [Example 4, (R)-4-(1-(3-aminopiperidin-1-yl)-6-(p-tolyl)pyrrolo[1,2-d] [1,2,4]triazine-7-yl)benzonitrile]",30.4
3,"COc1ccc(Nc2c(O)cc(N3CCC(N)CC3)nc2-c2ccc(C#N)c(F)c2)cc1F [Example 64, 4-(6-(4-aminopiperidin-1-yl)-3-(3-fluoro-4-methoxyphenyl)amino)-4-hydroxypyridin-2-yl)-2-flu orobenzonitrile hydrochloride]",344
4,"COc1ccc(-c2nc(N3CCC(N)CC3)cc(C#N)c2-c2ccc(C#N)c(F)c2)cc1O [Example 274, 6-(4-aminopiperidin-1-yl)-3-(4-cyano-3-fluorophenyl)-2-(3-hydroxy-4-methoxyphenyl)pyridin-4-carbonitrile]",> 1000
5,"COc1ccc(-c2cc(C#N)c(N3CCC(N)CC3)nc2-c2ccc(C#N)c(F)c2)cc1O [Example 282, 2-(4-aminopiperidin-1-yl)-6-(4-cyano-3-fluorophenyl)-5-(3-hydroxy-4-methoxyphenyl)nicotinon itrile hydrochloride]",136
6,"COc1ccc(-c2c(-c3ccc(C#N)c(F)c3)nc(N3CCC(N)CC3)c3c2cnn3C)cc1O [Example 285, 4-(7-(4-aminopiperidin-1-yl)-4-(3-hydroxy-4-methoxyphenyl)-1-methyl-1H-pyrazolo[3,4-c]pyridin-5-yl)-2-fluorobenzonitrile]",2.16

# Same assay, conditions: Homo sapiens, NCI-H1417, 168 h, read-out: NCI-H1417 proliferation inhibition IC50(nM)
row,Molecule,IC50 [nM]
1,"Cc1ccc(-c2c(-c3ccc(C#N)cc3)nc3c(N4CCC[C@@H](N)C4)nccn23)cc1 [Example 5, (R)-4-(8-(3-aminopiperidin-1-yl)-3-(p-tolyl)imidazo[1,2-a]pyrazin-2-yl)benzonitrile hydrochloride]",165

# Same assay, conditions: NCI-H1417 cells, 7 days, CellTiter-Glo; read-out: NCI-H1417 proliferation inhibition IC50
row,Molecule,IC50 [nM]
1,CS(=O)(=O)N1CCN(C(=O)c2cc(CN[C@@H]3C[C@H]3c3ccc(F)cc3)nc(-c3ccccc3)n2)CC1 [Example 1],11.3
2,"CS(=O)(=O)N1CCN(c2cc(CCCN[C@@H]3C[C@H]3c3ccc(F)cc3)nn(-c3ccc(C#N)cc3)c2=O)CC1 [Example 260, 4-(3-(3-((1R,2S)-2-(4-fluorophenyl)cyclopropyl)amino)-5-(4-(methylsulfonyl)piperazin-1-yl)-6-oxypyridazine-1 (6H)-yl)benzonitrile formate]",46.1

# Same assay, conditions: read-out: NCI-H1417 proliferation inhibition IC50
row,Molecule,IC50 [nM]
1,"5′-(4-aminopiperidin-1l-yl)-3-fluoro-3′,3′-dihydroxy-4′-methyl-[1,1′:2′,1′-triphenyl]-4-carbonitrile [Example 266]",0.48
